Laboratory results as given in patent US12144834B2, “Methods and compositions for treating gastrointestinal and inflammatory disorders” (Xbiome Inc., priority 2018, dated 2024).
≈ marks a conversion by molar mass, not a printed value. Read-outs that look alike come from different tables or passages of the source.

Tests used:
BTH01 = experiment: Phenotypic antibiotic susceptibility (MIC), research cell bank; type: cell-based, Bacteroides thetaiotaomicron; settings: for MIC: Bacteroides thetaiotaomicron, read-out: Determined MIC; for MIC Interpretation: against BTH01
EHA01 = experiment: Phenotypic antibiotic susceptibility (MIC, Etests), research cell bank; type: cell-based, Eubacterium hallii; settings: for MIC: Anaerobutyricum hallii, read-out: Determined MIC; for MIC Interpretation: against EHA01
RHO01 = experiment: as above; type: cell-based, Roseburia hominis; settings: for MIC: Roseburia hominis, read-out: Determined MIC; for MIC Interpretation: against RHO01

SMILES | MIC (BTH01; against BTH01, agar dilution) [µg/mL] | MIC Interpretation (BTH01) | MIC (EHA01; against EHA01, Etests) [µg/mL] | MIC Interpretation (EHA01) | MIC (RHO01; against RHO01, Etests) [µg/mL] | MIC Interpretation (RHO01) | MIC (BTH01) [µg/mL] | MIC (EHA01) [µg/mL] | MIC (RHO01) [µg/mL]
C[C@@H](O)[C@H]1C(=O)N2C(C(=O)O)=C(SCCN=CN)C[C@H]12 [Imipenem] | 0.5 (≈ 1.67 µM) | S | 0.008 (≈ 0.0267 µM) | S | 0.12 (≈ 0.401 µM) | S |  |  | 
CCC[C@@H]1C[C@@H](C(=O)N[C@@H]([C@H]2O[C@H](SC)[C@H](O)[C@@H](O)[C@H]2O)[C@H](C)Cl)N(C)C1 [Clindamycin] | > 32 | R | 0.03 (≈ 0.0706 µM) | S | ≤ 0.016 | S |  |  | 
CN[C@H](CC(C)C)C(=O)N[C@H]1C(=O)N[C@@H](CC(N)=O)C(=O)N[C@H]2C(=O)N[C@H]3C(=O)N[C@H](C(=O)N[C@H](C(=O)O)c4cc(O)cc(O)c4-c4cc3ccc4O)[C@H](O)c3ccc(c(Cl)c3)Oc3cc2cc(c3O[C@@H]2O[C@H](CO)[C@@H](O)[C@H](O)[C@H]2O[C@H]2C[C@](C)(N)[C@H](O)[C@H](C)O2)Oc2ccc(cc2Cl)[C@H]1O [Vancomycin] |  |  |  |  |  |  | 64 (≈ 44.2 µM) | 0.12 (≈ 0.0828 µM) | 0.25 (≈ 0.173 µM)
Cc1ncc([N+](=O)[O-])n1CCO [Metronidazole] | 2 (≈ 11.7 µM) | S | 0.06 (≈ 0.351 µM) | S | 0.03 (≈ 0.175 µM) | S |  |  | 
COc1c(N2C[C@@H]3CCCN[C@@H]3C2)c(F)cc2c(=O)c(C(=O)O)cn(C3CC3)c12 [Moxifloxacin] | 2 (≈ 4.98 µM) | S | 2 (≈ 4.98 µM) | S | 32 (≈ 79.7 µM) | R |  |  | 
CC1(C)S[C@@H]2[C@H](NC(=O)[C@H](N)c3ccccc3)C(=O)N2[C@H]1C(=O)O [Ampicillin] | 32 (≈ 91.6 µM) | R | 0.06 (≈ 0.172 µM) | S | ≤ 0.016 | S |  |  | 
CO[C@@]1(NC(=O)C2SC(=C(C(N)=O)C(=O)O)S2)C(=O)N2C(C(=O)O)=C(CSc3nnnn3C)CS[C@@H]21 (some centres unmarked) [Cefotetan] | 256 (≈ 445 µM) | R |  |  |  |  |  |  | 
